According to patent publication US20120046253A1, “STABLE PHARMACOLOGICALLY ACTIVE COMPOSITIONS INCLUDING VITAMIN D CONTAINING AND CORTICOSTEROID COMPOUNDS WITH LOW pH COMPATIBILITY” (priority 2006, published 2012):

How the values were obtained:
[1] = reportedly; cited from earlier work
[2] = Stability of the calcipotriene and betamethasone dipropionate composition at 55° C. (quantitative HPLC); assay type: physicochemical; conditions: Example 1 ointment
Procedure: (§1) In both of the above cases, stability is measured after incubation in a closed container at the recited temperature for the recited amount of time; stability is determined by any quantitative assay for the recited component, and is preferably determined by HPLC methodologies known in the art.

[3] = Stability of the calcipotriene and betamethasone dipropionate composition at 40° C. (quantitative HPLC); assay type: physicochemical
Procedure: as §1
The amount of the recited components in Table 1 were measured by quantitiative HPLC 1-2 days after the cooling (Time zero) and at the recited times after storage at the recited temperatures.
The amount of the recited components in Table 1 were measured by quantitiative HPLC 1-2 days after the cooling (Time zero) and at the recited times after storage at the recited temperatures).

[4] = asserted in U.S. Pat. No. 5,763,426; cited from earlier work

| Compound | pH at which most stable [1] | Assay (%) 3 days ([2]; stored at 55° C. 3 days) | Assay (%) Time zero ([2]; time zero (Table 2)) | Assay (%) Time zero ([3]; Example 1 ointment (medium chain triglyceride), 1-2 days after cooling, HPLC) | Assay (%) 1 months ([3]; Example 1 ointment, stored at 40° C. 1 month) | Assay (%) 2 months ([3]; Example 1 ointment, stored at 40° C. 2 months) | Assay (%) 3 months ([3]; Example 1 ointment, stored at 40° C. 3 months) | Assay Time zero ([3]; Example 2 ointment (polysorbate 80), time zero) | Assay 1 months ([3]; Example 2 ointment, stored at 40° C. 1 month) | Assay 2 months ([3]; Example 2 ointment, stored at 40° C. 2 months) | stability of crystal form [4] |
| --- | --- | --- | --- | --- | --- | --- | --- | --- | --- | --- | --- |
| C=C1/C(=C\C=C2/CCC[C@]3(C)[C@@H]([C@H](C)/C=C/[C@@H](O)C4CC4)CC[C@@H]23)C[C@@H](O)C[C@@H]1O [Calcipotriene, calcipotriene] | greater than 8 | 96.4% | 95.8% | 95.8% | 98.0% | 97.1% | 100.5% | 99.1% | 97.9% | 97.4% |  |
| C=C1/C(=C\C=C2/CCC[C@]3(C)[C@@H]([C@H](C)/C=C/[C@@H](O)C4CC4)CC[C@@H]23)C[C@@H](O)C[C@@H]1O [calcipotriol hydrate] |  |  |  |  |  |  |  |  |  |  | surprisingly stable |
